Measurements from patent US8334304B2, “Aminosulfonyl substituted 4-(aminomethyl)-piperidine benzamides as 5HT4-antagonists” (Janssen Pharmaceutica N.V., priority 2003, dated 2012).
pIC50: −log10 of the molar value. Structures can show the parent of a compound that is named as a salt. Where two headings read alike, the source gives them in different places.

What was measured:
[1] = Metabolic stability: incubation with liver microsomes and NADPH-generating system, LC-MS; type: in vitro ADME; conditions: compound 5 μM, microsomes 1 mg/ml, 37 degrees Celsius
Procedure: Sub-cellular tissue preparations were made according to Gorrod et al. (Xenobiotica 5: 453-462, 1975) by centrifugal separation after mechanical homogenization of tissue. Liver tissue was rinsed in ice-cold 0.1 M Tris-HCl (pH 7.4) buffer to wash excess blood. Tissue was then blotted dry, weighed and chopped coarsely using surgical scissors. The tissue pieces were homogenized in 3 volumes of ice-cold 0.1 M phosphate buffer (pH 7.4).
Tissue homogenates were centrifuged at 9000×g for 20 minutes at 4° C. The resulting supernatant was stored at −80° C. and is designated ‘S9’.
The S9 fraction can be further centrifuged at 100.000×g for 60 minutes (4° C.). The resulting supernatant was carefully aspirated, aliquoted and designated ‘cytosol’. The pellet was re-suspended in 0.1 M phosphate buffer (pH 7.4) in a final volume of 1 ml per 0.5 g original tissue weight and designated ‘microsomes’.
All sub-cellular fractions were aliquoted, immediately frozen in liquid nitrogen and stored at −80° C. until use.
Control samples contained the same material but the microsomes were replaced by heat inactivated (10 minutes at 95 degrees Celsius) microsomes. Recovery of the compounds in the control samples was always 100%.
The mixtures were preincubated for 5 minutes at 37 degrees Celsius. The reaction was started at time point zero (t=0) by addition of 0.8 mM NADP and the samples were incubated for 60 minutes (t=60). The reaction was terminated by the addition of 2 volumes of DMSO. Then the samples were centrifuged for 10 minutes at 900×g and the supernatants were stored at room temperature for no longer as 24 hours before analysis. All incubations were performed in duplo. Analysis of the supernatants was performed with LC-MS analysis. Elution of the samples was performed on a Xterra MS C18 (50×4.6 mm, 5 μm, Waters, US). An Alliance 2790 (Supplier: Waters, US) HPLC system was used. Elution was with buffer A (25 mM ammoniumacetate (pH 5.2) in H2O/acetonitrile (95/5)), solvent B being acetonitrile and solvent C methanol at a flow rate of 2.4 ml/min. The gradient employed was increasing the organic phase concentration from 0% over 50% B and 50% C in 5 min up to 100% B in 1 minute in a linear fashion and organic phase concentration was kept stationary for an additional 1.5 minutes. Total injection volume of the samples was 25 μl.
A Quatro triple quadrupole mass spectrometer fitted with and ESP source was used as detector. The source and the desolvation temperature were set at 120 and 350° C. respectively and nitrogen was used as nebuliser and drying gas. Data were acquired in positive scan mode (single ion reaction). Cone voltage was set at 10 V and the dwell time was 1 second.
Metabolic stability was expressed as % metabolism of the compound after 60 minutes (equation given as example) of incubation in the presence of active microsomes (E(act))

h5-HT4b = target: T1, h5-HT4b (Homo sapiens, UniProt Q13639); experiment: 5HT4 antagonism: [3H]GR113808 binding to membranes of h5-HT4b-HEK 293 clone 9 cells; conditions: 30 min at 25° C.; for IC50: displacement of 0.1 nM [3H]GR113808, membranes of h5-HT4b-HEK 293 cells, read-out: pIC50 (converted)
T1 construct: expressed in transfected cells; host or cells: HEK 293 (clone 9), membrane preparation
Procedure: The cells were then scraped from the plates and suspended in 50 mM Tris-HCl buffer, pH 7.4 and harvested by centrifugation at 23,500 rpm for 10 minutes. The pellet was resuspended in 5 mM Tris-HCl, pH 7.4 and homogenized with an Ultra Turrax homogenizer. The membranes were collected by centrifugation at 30,000 rpm for 20 min, resuspended in 50 mM Tris-HCl pH 7.4 and stored at −80° C. […] 50 μl of 10% DMSO was added for total binding. 50 μl of 1 μM of (+)-trans-(1-butyl-3-hydroxy-4-piperidinyl)methyl 8-amino-7-chloro-2,3-dihydro-1,4-benzodioxin-5-carboxylate (a proprietary 5HT4 agonist of Janssen Pharmaceutica) was added for determination of non-specific binding. The [^3H]GR113808 assay buffer was 50 mM HEPES-NaOH, pH 7.4. The mixtures were incubated for 30 min at 25° C. The incubation was terminated by filtration over a Unifilter 96 GF/B presoaked in 0.1% polyethylenimine, followed by six washing steps with 50 mM HEPES-NaOH, pH 7.4.

T1 sequence (Q13639 whole entry): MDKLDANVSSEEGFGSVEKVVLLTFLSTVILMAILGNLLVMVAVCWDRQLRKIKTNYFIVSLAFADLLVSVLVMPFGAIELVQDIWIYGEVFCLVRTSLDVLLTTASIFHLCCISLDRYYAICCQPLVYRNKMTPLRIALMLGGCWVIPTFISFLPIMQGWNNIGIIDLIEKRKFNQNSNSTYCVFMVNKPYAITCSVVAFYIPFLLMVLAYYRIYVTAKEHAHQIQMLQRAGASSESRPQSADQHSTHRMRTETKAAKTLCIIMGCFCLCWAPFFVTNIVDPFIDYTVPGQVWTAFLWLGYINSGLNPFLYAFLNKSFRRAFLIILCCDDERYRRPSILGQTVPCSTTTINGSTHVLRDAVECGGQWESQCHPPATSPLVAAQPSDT

SMILES: Cc1ccc(C(=O)NC[C@@H]2CCN(CCCC(=O)NS(C)(=O)=O)C[C@H]2O)c2c1OCCCO2 (as salt: hydrochloride) [Compound 27]
- melting point: 142 °C

SMILES: NS(=O)(=O)CCN1CC[C@@H](CNC(=O)c2cc(Cl)cc3c2OCCCO3)[C@H](O)C1 [Compound 22]
- melting point: 162 °C
- % metabolised compound after 60 minutes [1]: 28.5%
- pIC50 (h5-HT4b; pIC50, displacement of 0.1 nM [3H]GR113808, membranes of h5-HT4b-HEK 293 cells): 8.27

SMILES: COc1ccc(C(=O)NC[C@@H]2CCN(CCCCS(N)(=O)=O)C[C@H]2O)c2c1OCCCO2 [Compound 32]
- % metabolised compound after 60 minutes [1]: 0%
- IC50 (h5-HT4b): 3.63 nM

SMILES: CS(=O)(=O)NC(=O)CCCN1CC[C@@H](CNC(=O)c2cc(Cl)cc3c2OCCCO3)[C@H](O)C1 [Compound 15]
- melting point: 110 °C
- % metabolised compound after 60 minutes [1]: 36%
- IC50 (h5-HT4b): 35.5 nM

SMILES: CNS(=O)(=O)CCCN1CC[C@@H](CNC(=O)c2cc(Cl)cc3c2OCCCO3)[C@H](O)C1 (relative stereo) [Compound 33]
- IC50 (h5-HT4b): 2.19 nM

SMILES: COC1CN(CCCCS(N)(=O)=O)CCC1CNC(=O)c1cc(Cl)cc2c1OCCCO2 (stereo not shown) [Compound 45]
- IC50 (h5-HT4b): 1.38 nM

SMILES: Cc1ccc(C(=O)NCC2CCN(CCCS(=O)(=O)NC(C)C)CC2O)c2c1OCCCO2 (stereo not shown) [Compound 13]
- IC50 (h5-HT4b): 3.39 nM

SMILES: Cc1ccc(C(=O)NCC2CCN(CCCS(=O)(=O)Nc3ccccc3)CC2O)c2c1OCCCO2 (stereo not shown) [Compound 10]
- IC50 (h5-HT4b): 1.29 nM

SMILES: Cc1ccc(C(=O)NCC2CCN(CCCS(N)(=O)=O)CC2O)c2c1OCCCO2 (stereo not shown) [Compound 18]
- % metabolised compound after 60 minutes [1]: 7%
- IC50 (h5-HT4b): 5.25 nM

SMILES: Cc1ccc(C(=O)NC[C@@H]2CCN(CCCC(=O)NS(C)(=O)=O)C[C@H]2O)c2c1OCCCO2 [Compound 27]
- % metabolised compound after 60 minutes [1]: 5%
- IC50 (h5-HT4b): 12 nM

SMILES: NS(=O)(=O)CCCCN1CCC(CNC(=O)c2cc(F)cc3c2OCCCO3)C(O)C1 (stereo not shown) [Compound 39]
- % metabolised compound after 60 minutes [1]: 2%
- IC50 (h5-HT4b): 12.6 nM

SMILES: NS(=O)(=O)CCCN1CCC(CNC(=O)c2cc(Cl)cc3c2OCCCO3)C(O)C1 (stereo not shown) [Compound 21]
- % metabolised compound after 60 minutes [1]: 21%
- IC50 (h5-HT4b): 3.02 nM

SMILES: NS(=O)(=O)CCCCN1CCC(CNC(=O)c2cc(Cl)c(Br)c3c2OCCCO3)C(O)C1 (stereo not shown) [Compound 31]
- % metabolised compound after 60 minutes [1]: 18%
- IC50 (h5-HT4b): 0.891 nM

SMILES: COc1ccc(C(=O)NCC2CCN(CCCCS(N)(=O)=O)CC2O)c2c1OCCCO2 (stereo not shown) [Compound 40]
- % metabolised compound after 60 minutes [1]: 0%
- IC50 (h5-HT4b): 158 nM

SMILES: COC1CN(CCCS(N)(=O)=O)CCC1CNC(=O)c1cc(F)cc2c1OCCCO2 (stereo not shown) [Compound 46]
- IC50 (h5-HT4b): 4.17 nM

SMILES: COC1CN(CCCCS(N)(=O)=O)CCC1CNC(=O)c1cc(Cl)c(Br)c2c1OCCCO2 (stereo not shown) [Compound 43]
- IC50 (h5-HT4b): 1.7 nM

SMILES: CNS(=O)(=O)CCCN1CC[C@@H](CNC(=O)c2ccc(C)c3c2OCCCO3)[C@H](O)C1 [Compound 34]
- IC50 (h5-HT4b): 1.15 nM

SMILES: Cc1ccc(C(=O)NC[C@@H]2CCN(CCS(N)(=O)=O)C[C@H]2O)c2c1OCCCO2 [Compound 23]
- % metabolised compound after 60 minutes [1]: 8%
- IC50 (h5-HT4b): 5.75 nM

SMILES: Cc1cc2c(c(C(=O)NCC3CCN(CCCS(N)(=O)=O)CC3O)c1)OCCCO2 (stereo not shown) [Compound 19]
- % metabolised compound after 60 minutes [1]: 14%
- IC50 (h5-HT4b): 3.39 nM

SMILES: COC1CN(CCCS(N)(=O)=O)CCC1CNC(=O)c1cc(C#N)cc2c1OCCCO2 (stereo not shown) [Compound 41]
- IC50 (h5-HT4b): 56.2 nM

SMILES: O=C(NCC1CCN(CCCS(=O)(=O)Nc2ccccc2)CC1O)c1cc(Cl)cc2c1OCCCO2 (stereo not shown) [Compound 17]
- IC50 (h5-HT4b): 1.78 nM

SMILES: Cc1cc2c(c(C(=O)NCC3CCN(CCCCS(N)(=O)=O)CC3O)c1)OCCCO2 (stereo not shown) [Compound 20]
- % metabolised compound after 60 minutes [1]: 2%
- IC50 (h5-HT4b): 4.68 nM

SMILES: NS(=O)(=O)CCCCN1CC[C@@H](CNC(=O)c2cc(Cl)cc3c2OCCCO3)[C@H](O)C1 [Compound 26]
- % metabolised compound after 60 minutes [1]: 13%
- IC50 (h5-HT4b): 0.676 nM

SMILES: COC1CN(CCCCS(N)(=O)=O)CCC1CNC(=O)c1cc(Cl)c(Cl)c2c1OCCCO2 (stereo not shown) [Compound 42]
- IC50 (h5-HT4b): 1.51 nM

SMILES: CC(C)NS(=O)(=O)CCCN1CCC(CNC(=O)c2cc(Cl)cc3c2OCCCO3)C(O)C1 (stereo not shown) [Compound 14]
- IC50 (h5-HT4b): 1.95 nM

SMILES: Nc1cc2c(c(C(=O)NC[C@@H]3CCN(CCCS(N)(=O)=O)C[C@H]3O)c1)OCCCO2 (relative stereo) [Compound 8]
- melting point: 186 °C
- IC50 (h5-HT4b): 50.1 nM

SMILES: Cc1cc2c(c(C(=O)NC[C@@H]3CCN(CCS(N)(=O)=O)C[C@H]3O)c1)OCCCO2 [Compound 25]
- % metabolised compound after 60 minutes [1]: 8.5%
- IC50 (h5-HT4b): 8.51 nM

SMILES: Cc1cc2c(c(C(=O)NC[C@@H]3CCN(CCCS(=O)(=O)NC(C)C)C[C@H]3O)c1)OCCCO2 (relative stereo) [Compound 11]
- IC50 (h5-HT4b): 3.98 nM

SMILES: NS(=O)(=O)CCCCN1CC[C@@H](CNC(=O)c2cc(F)cc3c2OCCCO3)[C@H](O)C1 [Compound 35]
- % metabolised compound after 60 minutes [1]: 15%
- IC50 (h5-HT4b): 0.407 nM

SMILES: NS(=O)(=O)CCCCN1CC[C@@H](CNC(=O)c2cc(F)cc3c2OCCO3)[C@H](O)C1 [Compound 7]
- % metabolised compound after 60 minutes [1]: 3%
- IC50 (h5-HT4b): 1.86 nM

SMILES: COc1ccc(C(=O)NCC2(O)CCN(CCCCS(N)(=O)=O)CC2)c2c1OCCCO2 [Compound 47]
- % metabolised compound after 60 minutes [1]: 0%
- IC50 (h5-HT4b): 100 nM

SMILES: NS(=O)(=O)CCCCN1CC[C@@H](CNC(=O)c2cc(Cl)c(Cl)c3c2OCCCO3)[C@H](O)C1 (relative stereo) [Compound 30]
- % metabolised compound after 60 minutes [1]: 12%
- IC50 (h5-HT4b): 1.7 nM

SMILES: Cc1cc2c(c(C(=O)NC[C@@H]3CCN(CCCS(=O)(=O)Nc4ccccc4)C[C@H]3O)c1)OCCCO2 (relative stereo) [Compound 12]
- IC50 (h5-HT4b): 1.62 nM

SMILES: Cc1cc2c(c(C(=O)NCC3CCN(CCCCS(N)(=O)=O)CC3O)c1)OCCCO2 (stereo not shown) [Compound 38]
- % metabolised compound after 60 minutes [1]: 3%
- IC50 (h5-HT4b): 11.2 nM

SMILES: CNS(=O)(=O)CCCN1CCC(CNC(=O)c2cc(C)cc3c2OCCCO3)C(O)C1 (stereo not shown) [Compound 24]
- % metabolised compound after 60 minutes [1]: 53%
- IC50 (h5-HT4b): 2.88 nM

SMILES: CO[C@@H]1CN(CCCCS(N)(=O)=O)CC[C@H]1CNC(=O)c1cc(F)cc2c1OCCCO2 (relative stereo) [Compound 44]
- % metabolised compound after 60 minutes [1]: 27%
- IC50 (h5-HT4b): 3.72 nM

SMILES: COc1ccc(C(=O)NCC2CCN(CCCCS(N)(=O)=O)CC2OC)c2c1OCCO2 (stereo not shown) [Compound 6]
- % metabolised compound after 60 minutes [1]: 9%
- IC50 (h5-HT4b): 28.8 nM

SMILES: Cc1cc2c(c(C(=O)NCC3(O)CCN(CCCCS(N)(=O)=O)CC3)c1)OCCCO2 [Compound 48]
- % metabolised compound after 60 minutes [1]: 6%
- IC50 (h5-HT4b): 20.9 nM
